In patent US9078874B2, “Composition and method for treating cognitive impairments in down syndrom subjects” (Centre National De La Recherche Scientifique—CNRS, priority 2009, dated 2015):

Columns and labels:
[1] = target: GABAA receptors α1, α2, α3 and α5 subtypes (Homo sapiens, UniProt P31644); settings: α5 subtype; cited from earlier work
[2] = system: GABAA receptors α1, α2, α3 and α5 subtypes; settings: α1, α2 and α3 subtypes; cited from earlier work
[3] = system: young and elderly subjects; settings: cited from earlier work
[4] = system: euploid and Ts65Dn mice; test: Convulsant effects after a single intraperitoneal injection; type: in vivo; settings: 50 mg/kg i.p., observed 20 min
Procedure: The convulsant action of the α5IA or beta CCM was evaluated after a single intraperitoneal injection of 50 or 3 mg/Kg of α5IA or beta CCM, respectively. The 50 mg/Kg dose of α5IA corresponded to 10 times the dose with promnesiant effects and 10 times the active dose in the object recognition test (5 mg/Kg)
The proconvulsant action of the α5IA was measured after injection of a subconvulsive dose of pentylenetetrazole. Mice were injected with either vehicle or the α5IA (50 mg/kg i.p) and 20 min later they received an intraperitoneal injection of 45 mg/kg of pentylenetetrazole. […] Six to 7 mice were used for each condition. The latency to the first myoclonic jerk episode and the convulsion grade were recorded during a 1200-s period of observation. Four grades were empirically determined: Grade 0: no effect; grade 1: tail up and curved; grade 2: reversed tail and convulsive shivers; grade 3: myoclonic convulsions.
We then tested the proconvulsant effect of α5IA by injecting it (50 mg/kg) 20 min before a sub-convulsant dose of pentylenetetrazol (45 mg/kg) that induces myoclonic convulsions in about 50% of mice.

[5] = system: euploid mice; test: Dose-response in the delayed-matching-to-place task (DMTP); type: in vivo; settings: 5 mg/kg, 30 min before testing; versus placebo; p<0.05
Procedure: FIG. 5 depicts results from a dose-response effect study of α5IA. The optimal α5IA promnesiant dose was determined in mice trained in the DMTP task. FIG. 5A: Schematic representation of the DMTP protocol. Each day, mice underwent 1 acquisition trial and 3 retention trials (inter-trial interval was 60 sec). The position of the platform was changed every day, but remained constant within each session.
To determine the optimal dose of α5IA, a dose-response study was performed in euploid mice trained in the delayed-matching-to-place task (DMTP), a classical learning and memory paradigm used to assess the promnesiant effects of drugs, and in particular of GABAA α5 inverse agonists [ref 8, 9, 11].
Experiments were performed in a Morris water maze (MWM). The maze was a 150-cm diameter pool filled with opacified water kept at 19° C. and equipped with a 9 cm diameter platform submerged 1 cm under the water surface. A total of 27 mice were used. Animals were randomly and equally distributed in 3 groups (placebo, α5IA 1 mg/kg, α5IA 5 mg/kg). Training was performed during 7 days. […] Memory assessment was determined by comparing the distance to reach the platform on the first trial (acquisition trial) and the mean distance traveled in subsequent trials (retention trials).

GABAA receptors α1, α2, α3 and α5 subtypes (Homo sapiens, UniProt P31644), sequence (P31644 32-462): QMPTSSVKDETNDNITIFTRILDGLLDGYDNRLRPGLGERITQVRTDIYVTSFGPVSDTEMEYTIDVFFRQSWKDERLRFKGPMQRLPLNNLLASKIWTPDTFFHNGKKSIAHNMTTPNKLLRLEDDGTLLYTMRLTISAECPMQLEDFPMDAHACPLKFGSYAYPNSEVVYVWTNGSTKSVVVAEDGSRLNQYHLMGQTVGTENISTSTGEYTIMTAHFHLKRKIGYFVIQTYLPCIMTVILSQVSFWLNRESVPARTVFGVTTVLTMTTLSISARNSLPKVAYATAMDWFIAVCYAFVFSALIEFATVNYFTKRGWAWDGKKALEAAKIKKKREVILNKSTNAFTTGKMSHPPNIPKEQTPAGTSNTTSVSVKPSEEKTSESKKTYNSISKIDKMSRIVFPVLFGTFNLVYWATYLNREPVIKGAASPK
GABAA receptors α1, α2, α3 and α5 subtypes (Homo sapiens, UniProt P31644), sequence (P28472 26-473 partner): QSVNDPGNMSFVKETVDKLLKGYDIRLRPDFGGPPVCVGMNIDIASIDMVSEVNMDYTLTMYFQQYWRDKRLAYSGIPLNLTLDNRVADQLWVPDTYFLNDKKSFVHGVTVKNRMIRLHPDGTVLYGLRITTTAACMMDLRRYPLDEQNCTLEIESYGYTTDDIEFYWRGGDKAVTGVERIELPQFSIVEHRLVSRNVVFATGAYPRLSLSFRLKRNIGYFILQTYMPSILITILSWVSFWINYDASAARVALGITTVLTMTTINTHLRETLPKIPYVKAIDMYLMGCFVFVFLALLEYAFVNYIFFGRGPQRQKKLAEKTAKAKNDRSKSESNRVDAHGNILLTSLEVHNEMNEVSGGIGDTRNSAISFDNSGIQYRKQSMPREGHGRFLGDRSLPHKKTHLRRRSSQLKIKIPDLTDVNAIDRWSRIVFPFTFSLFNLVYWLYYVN
GABAA receptors α1, α2, α3 and α5 subtypes (Homo sapiens, UniProt P31644), sequence (P18507 40-475 partner): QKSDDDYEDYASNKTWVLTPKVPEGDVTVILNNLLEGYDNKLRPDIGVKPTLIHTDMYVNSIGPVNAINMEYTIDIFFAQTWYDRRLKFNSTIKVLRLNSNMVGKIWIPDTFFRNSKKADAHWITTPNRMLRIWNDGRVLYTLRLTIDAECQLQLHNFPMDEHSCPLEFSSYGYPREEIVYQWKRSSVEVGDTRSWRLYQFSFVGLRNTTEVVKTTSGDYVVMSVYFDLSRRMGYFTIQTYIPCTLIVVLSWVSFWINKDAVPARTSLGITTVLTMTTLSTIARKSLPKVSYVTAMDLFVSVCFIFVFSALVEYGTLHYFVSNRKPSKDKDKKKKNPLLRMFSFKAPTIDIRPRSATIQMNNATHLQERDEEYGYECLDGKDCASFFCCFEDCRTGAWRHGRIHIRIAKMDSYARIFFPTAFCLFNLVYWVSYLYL

## Cc1cc(-c2nnc3c4ccccc4c(OCc4cn(C)nn4)nn23)no1 [α5IA, 3-(5-methylisoxazol-3-yl)-6-[(1-methyl-1,2,3-triazol-4-yl)methyloxy]-1,2,4-triazolo[3,4-a]phthalazine]
[1]
  efficacy at the α5 subtype: exhibits inverse agonism
[2]
  efficacy at the α1, α2 and α3 subtypes: low or antagonist efficacy
[3]
  tolerability: well tolerated
[4]; Euploids
  Convulsant mice rate: 0/6
[4]; Ts65Dn
  Convulsant mice rate: 0/7
[5]
  Performance (distance to platform) between acquisition and retention trials: significantly higher performance
